Experimental data from US4789587A, “(1,3-dioxolan-2-yl-methyl)-1H-imidazoles as bactericidal and/or fungicidal agents” (IRE-Celltarg, S.A., priority 1986, dated 1988).
In brackets after ≈: the same amount, converted by molar mass. Like-named read-outs stand apart in the source and are kept apart here.

Key:
Type in all cases: cell-based
[1] = tested on: Candida albicans ATCCe 10231; experiment: minimum fungicidal concentration, subculture on YM agar, C. albicans
Method: (§1) The activity of the new derivatives according to the invention was tested in vitro by determining the minimum inhibiting concentration (MIC) of the molecules and their fungicidal (minimum fungicidal concentration MFC) or bactericidal (minimum bactericidal concentration MBC) activity. MFC and MBC are defined as the minimum dose which kills 99.9% of the organisms contained in the inoculum. Two species of yeasts pathogenic to man were used: Candida albicans ATCCe 10231 and Candida tropicalis ATCC 13803. Two species of bacteria were included in the screening: Staphylococcus aureus ATCC 25923 and Salmonella typhimurium LT2, strain Demerec. The MIC is determined after culturing overnight in a liquid medium, by the microtitration method in dishes containing 96 wells over a concentration range of 100 μM to 0.0008 μM. The inoculum contains 10^5 to 10^6 organisms/ml. The culture media consist on the one hand of RPMI to which 20% of foetal calf serum (inactivated for one hour at 56°) has been added in order to determine the fungistatic activity and Mueller-Hinton agar in order to determine the bacteriostatic power of the newly synthesized molecules on the other. The MFC and MBC for each of these molecules are obtained by subculturing a sample containing 10^3 organisms from each well giving negative results for the growth of the organisms, in a solid medium consisting of YM agar (yeasts) or Mueller-Hinton agar (bacteria) overnight at 37°.

[2] = tested on: Candida tropicalis ATCC 13803; experiment: minimum fungicidal concentration, subculture on YM agar, C. tropicalis
Method: as §1

[3] = tested on: Leydig tumor cells from mice (I-10, ATCC No. CCL83); experiment: in vitro synthesis of steroids: 20α-hydroxy-4-pregnen-3-one secretion by Leydig tumor cells induced by cAMP; settings: for 20α-OH-4-pregnen-3-one (1): dibutyryl-cAMP 1×10^-4 M, 3 hours incubation with compound, control 1744, basal 785; for activity at 0.94 µM: Mus musculus, Leydig, read-out: 20α-OH-4-pregnen-3-one (2) % enzyme activity relative to control
Text: (§2) Ketoconazole and its derivatives reduce the plasma levels of testosterone by inhibiting certain enzymes involved in its biogenesis. Progesterone is a key intermediate in the biogenesis of steroid hormones as it leads especially to estradiol in the ovary and to testosterone in the testicles. The inhibiting power of ketoconazole and its derivatives on the enzyme chain for the biogenesis of steroid hormones may be assessed by measuring the conversion of cholesterol into progesterone. A method of determination which enables this property to be quantified is described below.
(§3) Leydig tumor cells from mice (I-10, ATCC No. CCL83) were grown in a HAM's F10 medium to which 15% of horse serum and 2.5% of foetal calf serum were added. These cells have the property of secreting progesterone and a product of reduction of the latter which is no longer metabolized, 20α-hydroxy-4-pregnen-3-one. This secretion of steroids is induced by the addition of cAMP in the form of its dibutyryl ester (N^6, O^2' -dibutyryladenosine 3', 5'-cyclic monophosphate sodium salt monohydrate (Sigma)). The cells are subcultured in 25 cm^2 falcon dishes and maintained under CO2 (10%). When these become confluent (±1 mg/ml proteins) the medium is replaced with fresh medium containing dibutyryl-cAMP (1×10^-4 M). After incubating for 1 hour with the cAMP, the ketoconazole or its derivatives are added (9.4×10^-7 M) to the culture medium. After incubating for a further period of 3 hours, the supernatants are collected and will be used for the analysis of steroids by HPLC. The cells are rinsed with PBS (phosphate buffered saline: NaCl 0.15M, KCl 2.7 mM, Na2 HPO4 -KH2 PO4 3 mM pH 7.4) and after treating with DOC (deoxycholic acid), the determination of proteins is carried out by the Lowry method.
(§4) For the determination of steroids, 2 ml of the culture medium are brought into contact with 5 ml of ether. The tubes are vortexed for 2 minutes. After freezing the aqueous phases in an isopropanol/solid carbon dioxide bath, the ether phase is collected and the ether is evaporated off under a stream of nitrogen at 30° C. The dry extract is then diluted in 150 μl of water and 150 μl of acetonitrile and centrifuged at 13,000 rpm for 10 minutes. 30 μl of the supernatant are injected into HPLC on a 4 mm diameter, 30 cm long μBondapack C18 column (WATERS). The mobile phase consists of 38% of water, 31% acetonitrile and 31% methanol. The flowrate is 2 ml/min and readings are taken at 245 nm.

[4] = tested on: Leydig tumor cells from mice (I-10, ATCC No. CCL83); experiment: in vitro synthesis of steroids: progesterone secretion by Leydig tumor cells induced by cAMP; settings: for Progesterone (1): dibutyryl-cAMP 1×10^-4 M, 3 hours incubation with compound, control 3546, basal 554; for progesterone secretion, % of cAMP-induced control at 0.94 µM: Mus musculus, Leydig, read-out: Progesterone (2) % enzyme activity relative to control
Text: as §2, §3, §4

[5] = tested on: Staphylococcus aureus ATCC 25923; experiment: minimum inhibiting concentration, microtitration in liquid medium, S. aureus
Method: as §1

[6] = tested on: Staphylococcus aureus ATCC 25923; experiment: minimum bactericidal concentration, subculture on Mueller-Hinton agar, S. aureus
Method: as §1

[7] = tested on: Salmonella typhimurium LT2, strain Demerec; experiment: minimum inhibiting concentration, microtitration in liquid medium, S. typhimurium; settings: Salmonella enterica, read-out: MIC S. typhimurium
Method: as §1

[8] = tested on: Salmonella typhimurium LT2, strain Demerec; experiment: minimum bactericidal concentration, subculture on Mueller-Hinton agar, S. typhimurium; settings: Salmonella enterica, minimum dose which kills 99.9% of the organisms (MBC), overnight at 37°, read-out: MFC S. typhimurium
Method: as §1, with “The MFC and MBC for each of these molecules are obtained by subculturing a sample containing 10^3 organisms from each well giving negative results for the growth of the organisms, in a solid medium consisting of YM agar (yeasts) or Mueller-Hinton agar (bacteria) overnight at 37°.” left out

[9] = tested on: Candida tropicalis ATCC 13803; experiment: minimum inhibiting concentration, microtitration in liquid medium, C. tropicalis; settings: ATCC13803, RPMI + 20% foetal calf serum, overnight, inoculum 10^5 to 10^6 organisms/ml
Method: as §1

[10] = tested on: Candida albicans ATCCe 10231; experiment: minimum inhibiting concentration, microtitration in liquid medium, C. albicans; settings: ATCCE10231, RPMI + 20% foetal calf serum, overnight, inoculum 10^5 to 10^6 organisms/ml
Method: as §1

[11] = ATCC25923, read-out: MIC S. aureus
[12] = ATCCE10231, minimum dose which kills 99.9% of the organisms, YM agar, overnight at 37°, read-out: MFC C. albicans
[13] = ATCC13803, minimum dose which kills 99.9% of the organisms, YM agar, overnight at 37°, read-out: MFC C. tropicalis
[14] = 9.4×10^-7 M, relative to cells induced by cAMP in the absence of inhibitor
[15] = ATCC25923, Mueller-Hinton, overnight, inoculum 10^5 to 10^6 organisms/ml, read-out: MIC S. aureus
[16] = ATCC25923, minimum dose which kills 99.9% of the organisms (MBC), overnight at 37°, read-out: MFC S. aureus

Row | Structure (SMILES) | 20α-OH-4-pregnen-3-one (1) ([3]; 9.4×10^-7 M) | Progesterone (1) ([4]; 9.4×10^-7 M) | MFC [1, 12] | MIC [9] | MFC [2, 13] | activity at 0.94 µM [3, 14] | progesterone secretion, % of cAMP-induced control at 0.94 µM [4, 14] | MIC [10] | MIC [5, 15] | further results
1 | Clc1ccc(C2(Cn3ccnc3)OCC(COc3ccc(N4CCNCC4)cc3)O2)c(Cl)c1 (stereo not drawn) [Cis-1-[A]-piperazine, reference compound] | 1461 ng of steroids/mg of cell prot | 2783 ng of steroids/mg of cell prot | – | – | – | – | – | – | – | MFC ([1]; ATCCE10231, read-out: MFC C. albicans): 2.35 µM (≈ 1.15 µg/mL); MFC ([2]; ATCC13803, read-out: MFC C. tropicalis): 1.58 µM (≈ 0.773 µg/mL); activity at 0.94 µM [3]: 84%; progesterone secretion, % of cAMP-induced control at 0.94 µM [4]: 78%; MIC [5, 11]: 3.65 µM (≈ 1.79 µg/mL); MBC ([6]; ATCC25923, read-out: MFC S. aureus, minimum dose which kills 99.9% of the organisms (MBC), overnight at 37°): 25 µM (≈ 12.2 µg/mL); MIC [7]: > 100 µM
2 | CC(=O)N1CCN(c2ccc(OCC3COC(Cn4ccnc4)(c4ccc(Cl)cc4Cl)O3)cc2)CC1 (stereo not shown) [Ketoconazole, reference compound] | 1296 ng of steroids/mg of cell prot | 1878 ng of steroids/mg of cell prot | 0.22 µM (≈ 0.117 µg/mL) | 0.049 µM | 4.88 µM (≈ 2.59 µg/mL) | 74% | 53% | 0.053 µM | 20.4 µM (≈ 10.9 µg/mL) | MBC [8]: > 100 µM; MBC [6, 16]: 50 µM (≈ 26.6 µg/mL); MIC ([7]; Mueller-Hinton, overnight, inoculum 10^5 to 10^6 organisms/ml): > 100 µM
3 | Clc1ccc(COC(Cn2ccnc2)c2ccc(Cl)cc2Cl)c(Cl)c1 (stereo not shown) [Miconazole, reference compound] | – | – | – | – | – | – | – | – | – | MIC [5, 11]: 1.56 µM (≈ 0.649 µg/mL)
4 | NCC(=O)N1CCN(c2ccc(OCC3COC(Cn4ccnc4)(c4ccc(Cl)cc4Cl)O3)cc2)CC1 (stereo not drawn) [No. 1, Cis-4-[A]-1-(glycyl)piperazine] | – | – | 2.38 µM (≈ 1.3 µg/mL) | 0.119 µM | 1.3 µM (≈ 0.71 µg/mL) | – | – | 0.16 µM | 12 µM (≈ 6.55 µg/mL) | MBC [6, 16]: 25 µM (≈ 13.7 µg/mL)
5 | CC(N)C(=O)N1CCN(c2ccc(OCC3COC(Cn4ccnc4)(c4ccc(Cl)cc4Cl)O3)cc2)CC1 (stereo not drawn) [No. 2, Cis-4-[A]-1-(alanyl)piperazine] | 1299 ng of steroids/mg of cell prot | 1939 ng of steroids/mg of cell prot | – | 0.006 µM | – | 74% | 55% | 0.006 µM | – | –
6 | NCC(=O)NCC(=O)N1CCN(c2ccc(OCC3COC(Cn4ccnc4)(c4ccc(Cl)cc4Cl)O3)cc2)CC1 (stereo not drawn) [No. 3, Cis-4-[A]-1-(N-glycylglycyl)piperazine] | – | – | – | 0.48 µM | – | – | – | 0.48 µM | – | –
7 | O=C(O)CCC(=O)N1CCN(c2ccc(OCC3COC(Cn4ccnc4)(c4ccc(Cl)cc4Cl)O3)cc2)CC1 (stereo not drawn) [No. 4, Cis-4-[A]-1(succinyl)piperazine] | – | – | 25 µM (≈ 14.7 µg/mL) | 15.2 µM | 50 µM (≈ 29.5 µg/mL) | – | – | 19.8 µM | 50.8 µM (≈ 29.9 µg/mL) | MBC [6, 16]: > 100 µM
8 | O=C(O)CCC(=O)NCC(=O)N1CCN(c2ccc(OCC3COC(Cn4ccnc4)(c4ccc(Cl)cc4Cl)O3)cc2)CC1 (stereo not drawn) [No. 5, Cis-4-[A]-1-(N-succinylglycyl)piperazine] | – | – | – | 25 µM | – | – | – | 25 µM | 50 µM (≈ 32.3 µg/mL) | –
9 | CC(=O)NCC(=O)N1CCN(c2ccc(OCC3COC(Cn4ccnc4)(c4ccc(Cl)cc4Cl)O3)cc2)CC1 (stereo not drawn) [No. 6, Cis-4-[A]-1-(N-acetylglycyl)piperazine] | – | – | 6.25 µM (≈ 3.68 µg/mL) | 0.78 µM | 12.5 µM (≈ 7.36 µg/mL) | – | – | 3.13 µM | – | –
10 | CCCCCCCCC=CCCCCCCCC(=O)NCC(=O)N1CCN(c2ccc(OCC3COC(Cn4ccnc4)(c4ccc(Cl)cc4Cl)O3)cc2)CC1 (stereo not drawn) [No. 8, Cis-4-[A]-1-(N-oleylglycyl)piperazine] | – | – | 62.5 µM (≈ 50.7 µg/mL) | 53.1 µM | > 100 µM | – | – | 31.2 µM | – | –
11 | CC(C)CC(N)C(=O)N1CCN(c2ccc(OCC3COC(Cn4ccnc4)(c4ccc(Cl)cc4Cl)O3)cc2)CC1 (stereo not drawn) [No. 9, Cis-4-[A]-1-(leucyl)piperazine] | 1725 ng of steroids/mg of cell prot | 2231 ng of steroids/mg of cell prot | – | – | – | 99% | 63% | – | – | –
12 | NC(Cc1ccccc1)C(=O)N1CCN(c2ccc(OCC3COC(Cn4ccnc4)(c4ccc(Cl)cc4Cl)O3)cc2)CC1 (stereo not drawn) [No. 10, Cis-4-[A]-1-(phenylalanyl)piperazine] | 605 ng of steroids/mg of cell prot | 323 ng of steroids/mg of cell prot | – | – | – | 35% | 9% | – | – | –
